Experimental data published in patent US10765114B2, “4-amino-6-(pyridyl and 2-substitutedphenyl)-picolinates and 6-amino-2-(pyridyl and 2-substitutedphenyl)-pyrimidine-4-carboxylates and their use as herbicides” (Dow AgroSciences LLC, priority 2013, dated 2020).

These molecules were tested on Key Broadleaf Weed and Crop Species (assay: Post-Emergent Test II (Table 5)). Settings: Abutilon theophrasti, post-emergence, 336 h, ABUTH: velvetleaf (Abutilon theophrasti), application rate 70 (kg ai/ha; footnote: g ai/ha), read-out: Visual Growth Reduction (%) 14 Days After Application ABUTH.
Format: in vivo
Method in brief: (§1)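 Seedlings are raised 7-21 days in Metro-Mix 360 (pH 6.0-6.8) under greenhouse conditions, then sprayed at the first or second true leaf stage. Application is 187 L/ha, with serial rates down to 1/16× of the highest. Plants are subirrigated, and percent injury is rated visually after 14 days.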
For `C#Cc1c(-c2cc(N)c(Cl)c(C(=O)OC)n2)ccc(Cl)c1F` [Compound 75, methyl 4-amino-3-chloro-6-(4-chloro-2-ethynyl-3-fluorophenyl)picolinate], the pest or weed control at 70 g/ha was 0 to 29%.

Same assay, conditions: Abutilon theophrasti, post-emergence, 336 h, ABUTH: velvetleaf (Abutilon theophrasti), application rate 140 (kg ai/ha; footnote: g ai/ha), read-out: Visual Growth Reduction (%) 14 Days After Application ABUTH
With `C#Cc1c(-c2cc(N)c(Cl)c(C(=O)OC)n2)ccc(Cl)c1F` [Compound 75, methyl 4-amino-3-chloro-6-(4-chloro-2-ethynyl-3-fluorophenyl)picolinate] the pest or weed control at 140 g/ha was 0 to 29%.

Same assay, conditions: Amaranthus retroflexus, post-emergence, 336 h, AMARE: redroot pigweed (Amaranthus retroflexus), application rate 70 (kg ai/ha; footnote: g ai/ha), read-out: Visual Growth Reduction (%) 14 Days After Application AMARE
With `C#Cc1c(-c2cc(N)c(Cl)c(C(=O)OC)n2)ccc(Cl)c1F` [Compound 75, methyl 4-amino-3-chloro-6-(4-chloro-2-ethynyl-3-fluorophenyl)picolinate] the pest or weed control at 70 g/ha was 0 to 29%.

Same assay, conditions: Amaranthus retroflexus, post-emergence, 336 h, AMARE: redroot pigweed (Amaranthus retroflexus), application rate 140 (kg ai/ha; footnote: g ai/ha), read-out: Visual Growth Reduction (%) 14 Days After Application AMARE
With `C#Cc1c(-c2cc(N)c(Cl)c(C(=O)OC)n2)ccc(Cl)c1F` [Compound 75, methyl 4-amino-3-chloro-6-(4-chloro-2-ethynyl-3-fluorophenyl)picolinate] the pest or weed control at 140 g/ha was 0 to 29%.

Same assay, conditions: Brassica napus, post-emergence, 336 h, BRSSS: oilseed rape, canola (Brassica napus), application rate 70 (kg ai/ha; footnote: g ai/ha), read-out: Visual Growth Reduction (%) 14 Days After Application BRSSS
`C#Cc1c(-c2cc(N)c(Cl)c(C(=O)OC)n2)ccc(Cl)c1F` [Compound 75, methyl 4-amino-3-chloro-6-(4-chloro-2-ethynyl-3-fluorophenyl)picolinate] was tested, and the pest or weed control at 70 g/ha was 0 to 29%.

Same assay, conditions: Brassica napus, post-emergence, 336 h, BRSSS: oilseed rape, canola (Brassica napus), application rate 140 (kg ai/ha; footnote: g ai/ha), read-out: Visual Growth Reduction (%) 14 Days After Application BRSSS
`C#Cc1c(-c2cc(N)c(Cl)c(C(=O)OC)n2)ccc(Cl)c1F` [Compound 75, methyl 4-amino-3-chloro-6-(4-chloro-2-ethynyl-3-fluorophenyl)picolinate] was tested, and the pest or weed control at 140 g/ha was 0 to 29%.

Same assay, conditions: Chenopodium album, post-emergence, 336 h, CHEAL: lambsquarters (Chenopodium album), application rate 70 (kg ai/ha; footnote: g ai/ha), read-out: Visual Growth Reduction (%) 14 Days After Application CHEAL
With `C#Cc1c(-c2cc(N)c(Cl)c(C(=O)OC)n2)ccc(Cl)c1F` [Compound 75, methyl 4-amino-3-chloro-6-(4-chloro-2-ethynyl-3-fluorophenyl)picolinate] the pest or weed control at 70 g/ha was 75 to 84%.

Same assay, conditions: Chenopodium album, post-emergence, 336 h, CHEAL: lambsquarters (Chenopodium album), application rate 140 (kg ai/ha; footnote: g ai/ha), read-out: Visual Growth Reduction (%) 14 Days After Application CHEAL
For `C#Cc1c(-c2cc(N)c(Cl)c(C(=O)OC)n2)ccc(Cl)c1F` [Compound 75, methyl 4-amino-3-chloro-6-(4-chloro-2-ethynyl-3-fluorophenyl)picolinate], the pest or weed control at 140 g/ha was 75 to 84%.

Same assay, conditions: Euphorbia heterophylla, post-emergence, 336 h, EPHHL: wild poinsettia (Euphorbia heterophylla), application rate 70 (kg ai/ha; footnote: g ai/ha), read-out: Visual Growth Reduction (%) 14 Days After Application EPHHL
Molecule `C#Cc1c(-c2cc(N)c(Cl)c(C(=O)OC)n2)ccc(Cl)c1F` [Compound 75, methyl 4-amino-3-chloro-6-(4-chloro-2-ethynyl-3-fluorophenyl)picolinate] has a pest or weed control at 70 g/ha of 0 to 29%.

Same assay, conditions: Euphorbia heterophylla, post-emergence, 336 h, EPHHL: wild poinsettia (Euphorbia heterophylla), application rate 140 (kg ai/ha; footnote: g ai/ha), read-out: Visual Growth Reduction (%) 14 Days After Application EPHHL
`C#Cc1c(-c2cc(N)c(Cl)c(C(=O)OC)n2)ccc(Cl)c1F` [Compound 75, methyl 4-amino-3-chloro-6-(4-chloro-2-ethynyl-3-fluorophenyl)picolinate] gave a pest or weed control at 140 g/ha of 0 to 29%.

Same assay, conditions: Helianthus annuus, post-emergence, 336 h, HELAN: sunflower (Helianthus annuus), application rate 70 (kg ai/ha; footnote: g ai/ha), read-out: Visual Growth Reduction (%) 14 Days After Application HELAN
`C#Cc1c(-c2cc(N)c(Cl)c(C(=O)OC)n2)ccc(Cl)c1F` [Compound 75, methyl 4-amino-3-chloro-6-(4-chloro-2-ethynyl-3-fluorophenyl)picolinate] gave a pest or weed control at 70 g/ha of 0 to 29%.

Same assay, conditions: Helianthus annuus, post-emergence, 336 h, HELAN: sunflower (Helianthus annuus), application rate 140 (kg ai/ha; footnote: g ai/ha), read-out: Visual Growth Reduction (%) 14 Days After Application HELAN
For `C#Cc1c(-c2cc(N)c(Cl)c(C(=O)OC)n2)ccc(Cl)c1F` [Compound 75, methyl 4-amino-3-chloro-6-(4-chloro-2-ethynyl-3-fluorophenyl)picolinate], the pest or weed control at 140 g/ha was 0 to 29%.

Same assay, conditions: Viola tricolor, post-emergence, 336 h, VIOTR: wild pansy (Viola tricolor), application rate 70 (kg ai/ha; footnote: g ai/ha), read-out: Visual Growth Reduction (%) 14 Days After Application VIOTR
`C#Cc1c(-c2cc(N)c(Cl)c(C(=O)OC)n2)ccc(Cl)c1F` [Compound 75, methyl 4-amino-3-chloro-6-(4-chloro-2-ethynyl-3-fluorophenyl)picolinate] showed a pest or weed control at 70 g/ha of 0 to 29%.

Same assay, conditions: Viola tricolor, post-emergence, 336 h, VIOTR: wild pansy (Viola tricolor), application rate 140 (kg ai/ha; footnote: g ai/ha), read-out: Visual Growth Reduction (%) 14 Days After Application VIOTR
`C#Cc1c(-c2cc(N)c(Cl)c(C(=O)OC)n2)ccc(Cl)c1F` [Compound 75, methyl 4-amino-3-chloro-6-(4-chloro-2-ethynyl-3-fluorophenyl)picolinate] showed a pest or weed control at 140 g/ha of 0 to 29%.

Each molecule was assayed on Key Grass and Sedge Weeds as well as Grass Crops (assay: Post-Emergent Test II (Table 6)). Settings: post-emergence, 336 h, CYPSS, 70 g ai/ha, 14 days after application, read-out: Visual Growth Reduction (%) 14 Days After Application CYPSS.
Format: in vivo
Method in brief: as §1
Molecule `C#Cc1c(-c2cc(N)c(Cl)c(C(=O)OC)n2)ccc(Cl)c1F` [Compound 75, methyl 4-amino-3-chloro-6-(4-chloro-2-ethynyl-3-fluorophenyl)picolinate] has a pest or weed control at 70 g/ha of 0 to 29%.

Same assay, conditions: post-emergence, 336 h, CYPSS, 140 g ai/ha, 14 days after application, read-out: Visual Growth Reduction (%) 14 Days After Application CYPSS
For `C#Cc1c(-c2cc(N)c(Cl)c(C(=O)OC)n2)ccc(Cl)c1F` [Compound 75, methyl 4-amino-3-chloro-6-(4-chloro-2-ethynyl-3-fluorophenyl)picolinate], the pest or weed control at 140 g/ha was 0 to 29%.

Same assay, conditions: post-emergence, 336 h, DIGSA: crabgrass (Digitaria sanguinalis), 70 g ai/ha, 14 days after application, read-out: Visual Growth Reduction (%) 14 Days After Application DIGSA
With `C#Cc1c(-c2cc(N)c(Cl)c(C(=O)OC)n2)ccc(Cl)c1F` [Compound 75, methyl 4-amino-3-chloro-6-(4-chloro-2-ethynyl-3-fluorophenyl)picolinate] the pest or weed control at 70 g/ha was 0 to 29%.

Same assay, conditions: post-emergence, 336 h, DIGSA: crabgrass (Digitaria sanguinalis), 140 g ai/ha, 14 days after application, read-out: Visual Growth Reduction (%) 14 Days After Application DIGSA
`C#Cc1c(-c2cc(N)c(Cl)c(C(=O)OC)n2)ccc(Cl)c1F` [Compound 75, methyl 4-amino-3-chloro-6-(4-chloro-2-ethynyl-3-fluorophenyl)picolinate] was tested, and the pest or weed control at 140 g/ha was 0 to 29%.

Same assay, conditions: post-emergence, 336 h, ECHSS, 70 g ai/ha, 14 days after application, read-out: Visual Growth Reduction (%) 14 Days After Application ECHSS
Molecule `C#Cc1c(-c2cc(N)c(Cl)c(C(=O)OC)n2)ccc(Cl)c1F` [Compound 75, methyl 4-amino-3-chloro-6-(4-chloro-2-ethynyl-3-fluorophenyl)picolinate] has a pest or weed control at 70 g/ha of 0 to 29%.

Same assay, conditions: post-emergence, 336 h, ECHSS, 140 g ai/ha, 14 days after application, read-out: Visual Growth Reduction (%) 14 Days After Application ECHSS
Molecule `C#Cc1c(-c2cc(N)c(Cl)c(C(=O)OC)n2)ccc(Cl)c1F` [Compound 75, methyl 4-amino-3-chloro-6-(4-chloro-2-ethynyl-3-fluorophenyl)picolinate] has a pest or weed control at 140 g/ha of 0 to 29%.

Same assay, conditions: post-emergence, 336 h, ORYSS (crop), 70 g ai/ha, 14 days after application, read-out: Visual Growth Reduction (%) 14 Days After Application ORYSS
Molecule `C#Cc1c(-c2cc(N)c(Cl)c(C(=O)OC)n2)ccc(Cl)c1F` [Compound 75, methyl 4-amino-3-chloro-6-(4-chloro-2-ethynyl-3-fluorophenyl)picolinate] has a pest or weed control at 70 g/ha of 0 to 29%.

Same assay, conditions: post-emergence, 336 h, ORYSS (crop), 140 g ai/ha, 14 days after application, read-out: Visual Growth Reduction (%) 14 Days After Application ORYSS
`C#Cc1c(-c2cc(N)c(Cl)c(C(=O)OC)n2)ccc(Cl)c1F` [Compound 75, methyl 4-amino-3-chloro-6-(4-chloro-2-ethynyl-3-fluorophenyl)picolinate] was tested, and the pest or weed control at 140 g/ha was 0 to 29%.

Same assay, conditions: post-emergence, 336 h, SETFA: giant foxtail (Setaria faberi), 70 g ai/ha, 14 days after application, read-out: Visual Growth Reduction (%) 14 Days After Application SETFA
For `C#Cc1c(-c2cc(N)c(Cl)c(C(=O)OC)n2)ccc(Cl)c1F` [Compound 75, methyl 4-amino-3-chloro-6-(4-chloro-2-ethynyl-3-fluorophenyl)picolinate], the pest or weed control at 70 g/ha was 0 to 29%.

Same assay, conditions: post-emergence, 336 h, SETFA: giant foxtail (Setaria faberi), 140 g ai/ha, 14 days after application, read-out: Visual Growth Reduction (%) 14 Days After Application SETFA
In the case of `C#Cc1c(-c2cc(N)c(Cl)c(C(=O)OC)n2)ccc(Cl)c1F` [Compound 75, methyl 4-amino-3-chloro-6-(4-chloro-2-ethynyl-3-fluorophenyl)picolinate], the pest or weed control at 140 g/ha was 0 to 29%.

Same assay, conditions: post-emergence, 336 h, SORVU: grain sorghum (Sorghum vulgare), 70 g ai/ha, 14 days after application, read-out: Visual Growth Reduction (%) 14 Days After Application SORVU
`C#Cc1c(-c2cc(N)c(Cl)c(C(=O)OC)n2)ccc(Cl)c1F` [Compound 75, methyl 4-amino-3-chloro-6-(4-chloro-2-ethynyl-3-fluorophenyl)picolinate] showed a pest or weed control at 70 g/ha of 0 to 29%.

Same assay, conditions: post-emergence, 336 h, SORVU: grain sorghum (Sorghum vulgare), 140 g ai/ha, 14 days after application, read-out: Visual Growth Reduction (%) 14 Days After Application SORVU
For `C#Cc1c(-c2cc(N)c(Cl)c(C(=O)OC)n2)ccc(Cl)c1F` [Compound 75, methyl 4-amino-3-chloro-6-(4-chloro-2-ethynyl-3-fluorophenyl)picolinate], the pest or weed control at 140 g/ha was 0 to 29%.

Same assay, conditions: post-emergence, 336 h, TRZSS (crop), 70 g ai/ha, 14 days after application, read-out: Visual Growth Reduction (%) 14 Days After Application TRZSS
In the case of `C#Cc1c(-c2cc(N)c(Cl)c(C(=O)OC)n2)ccc(Cl)c1F` [Compound 75, methyl 4-amino-3-chloro-6-(4-chloro-2-ethynyl-3-fluorophenyl)picolinate], the pest or weed control at 70 g/ha was 0 to 29%.

Same assay, conditions: post-emergence, 336 h, TRZSS (crop), 140 g ai/ha, 14 days after application, read-out: Visual Growth Reduction (%) 14 Days After Application TRZSS
For `C#Cc1c(-c2cc(N)c(Cl)c(C(=O)OC)n2)ccc(Cl)c1F` [Compound 75, methyl 4-amino-3-chloro-6-(4-chloro-2-ethynyl-3-fluorophenyl)picolinate], the pest or weed control at 140 g/ha was 0 to 29%.

Same assay, conditions: post-emergence, 336 h, ZEAMX: maize, corn (Zea mays), 70 g ai/ha, 14 days after application, read-out: Visual Growth Reduction (%) 14 Days After Application ZEAMX
Molecule `C#Cc1c(-c2cc(N)c(Cl)c(C(=O)OC)n2)ccc(Cl)c1F` [Compound 75, methyl 4-amino-3-chloro-6-(4-chloro-2-ethynyl-3-fluorophenyl)picolinate] has a pest or weed control at 70 g/ha of 0 to 29%.

Same assay, conditions: post-emergence, 336 h, ZEAMX: maize, corn (Zea mays), 140 g ai/ha, 14 days after application, read-out: Visual Growth Reduction (%) 14 Days After Application ZEAMX
`C#Cc1c(-c2cc(N)c(Cl)c(C(=O)OC)n2)ccc(Cl)c1F` [Compound 75, methyl 4-amino-3-chloro-6-(4-chloro-2-ethynyl-3-fluorophenyl)picolinate] gave a pest or weed control at 140 g/ha of 0 to 29%.
